Values after ≈ are worked out from the molar mass of the structure shown. Active and inactive are the calls of the source. The calls are words filed in the database; no cut-off is given here.
Tests used:
Staphylococcus aureus [1] = assay: Antibacterial activity against methicillin-resistant Staphylococcus aureus assessed growth inhibition by micro broth dilution method; type: functional
Staphylococcus aureus [2] = assay: Antibacterial activity against Staphylococcus aureus assessed growth inhibition by micro broth dilution method; type: functional
Staphylococcus aureus [3] = assay: Antibacterial activity against Staphylococcus aureus ATCC 25923 assessed growth inhibition by micro broth dilution method; type: functional
Staphylococcus aureus [4] = assay: Antibacterial activity against Staphylococcus aureus ATCC 29213 assessed growth inhibition by micro broth dilution method; type: functional
Enterococcus faecalis = assay: Antibacterial activity against Enterococcus faecalis assessed growth inhibition by micro broth dilution method; type: functional
Klebsiella pneumoniae [5] = assay: Antibacterial activity against Klebsiella pneumonia assessed growth inhibition by micro broth dilution method; type: functional
Escherichia coli [6] = assay: Antibacterial activity against Escherichia coli assessed growth inhibition by micro broth dilution method; type: functional
Escherichia coli [7] = assay: Antibacterial activity against Escherichia coli ATCC 25922 assessed growth inhibition by micro broth dilution method; type: functional
Pseudomonas aeruginosa [8] = assay: Antibacterial activity against Pseudomonas aeruginosa assessed growth inhibition by micro broth dilution method; type: functional
Pseudomonas aeruginosa [9] = assay: Antibacterial activity against Pseudomonas aeruginosa ATCC 27853 assessed growth inhibition by micro broth dilution method; type: functional
Acinetobacter baumannii = assay: Antibacterial activity against Acinetobacter baumannii assessed growth inhibition by micro broth dilution method; type: functional
Staphylococcus aureus [10] = assay: Bactericidal activity against Staphylococcus aureus ATCC 29213 assessed as time dependent killing at 4 times of MIC measured at 8 hrs; type: functional, organism-based
Klebsiella pneumoniae [11] = assay: Bactericidal activity against Klebsiella pneumonia assessed as time dependent killing at 4 times of MIC measured at 8 hrs; type: functional, organism-based
Staphylococcus aureus [12] = assay: Induction of resistance development in Staphylococcus aureus ATCC 29213 assessed as after 20 passages measured upto 4.5 times of MIC; type: functional
Klebsiella pneumoniae [13] = assay: Induction of resistance development in Klebsiella pneumonia assessed as after 20 passages measured upto 4.5 times of MIC; type: functional
Staphylococcus aureus [14] = assay: Anti-biofilm activity against Staphylococcus aureus ATCC 29213 assessed as relative biofilm clearance rate by crystal violet staining based assay; type: functional, organism-based
Klebsiella pneumoniae [15] = assay: Anti-biofilm activity against Klebsiella pneumonia assessed as relative biofilm clearance rate by crystal violet staining based assay; type: functional, organism-based
Cell membrane [16] = assay: Induction of outer membrane permeability in Klebsiella pneumonia assessed as increase in fluorescence intensity at 2 times of MIC by N-phenyl naphthylamine (NPN) dye based assay; type: cell membranes; details: Klebsiella pneumoniae
Cell membrane [17] = assay: Induction of inner membrane permeability in Staphylococcus aureus ATCC 29213 assessed as increase in fluorescence intensity by propidium iodide uptake based microscopic imaging assay; type: cell membranes
Cell membrane [18] = assay: Induction of inner membrane permeability in Klebsiella pneumonia assessed as increase in fluorescence intensity by propidium iodide uptake based microscopic imaging assay; type: cell membranes; details: Klebsiella pneumoniae
Cell membrane [19] = assay: Induction of cytoplasmic membrane depolarization in Staphylococcus aureus ATCC 29213 assessed as increase in fluorescence intensity at 2 times of MIC measured upto 40 mins by DiSC35 dye based fluorescence method; type: cell membranes
Cell membrane [20] = assay: Induction of cytoplasmic membrane depolarization in Klebsiella pneumonia assessed as increase in fluorescence intensity at 2 times of MIC measured upto 40 mins by DiSC35 dye based fluorescence method; type: cell membranes; details: Klebsiella pneumoniae, DISRUPTING AGENT
Cell membrane [21] = assay: Induction of disruption of membrane integrity in Staphylococcus aureus ATCC 29213 assessed as leakage of intracellular proteins by Acid Blue 90 based assay; type: cell membranes
Cell membrane [22] = assay: Induction of disruption of membrane integrity in Klebsiella pneumonia assessed as leakage of intracellular proteins by Acid Blue 90 based assay; type: cell membranes; details: Klebsiella pneumoniae
Calf thymus DNA [23] = assay: Binding affinity to calf thymus DNA assessed as change in absorption measuring hyperchromism by UV-Vis absorption spectra analysis; type: nucleic-acid assay; details: Bos taurus
Calf thymus DNA [24] = assay: Induction of calf thymus DNA double helix loss assessed as reduction in fluorescence intensity at 525 nm wavelength by acridine orange competition based assay; type: nucleic-acid assay; details: Bos taurus
Staphylococcus aureus [25] = assay: Induction of ROS generation in Staphylococcus aureus ATCC 29213 assessed as increase in fluorescence intensity by DCFH-DA based microscopic analysis; type: functional, organism-based
Klebsiella pneumoniae [26] = assay: Induction of ROS generation in Klebsiella pneumonia assessed as increase in fluorescence intensity by DCFH-DA based microscopic analysis; type: functional, organism-based
Staphylococcus aureus [27] = assay: Induction of ROS generation in Staphylococcus aureus ATCC 29213 assessed as loss of GSH activity by Ellmans method; type: functional, organism-based
Klebsiella pneumoniae [28] = assay: Induction of ROS generation in Klebsiella pneumonia assessed as loss of GSH activity by Ellmans method; type: functional, organism-based
Staphylococcus aureus [29] = assay: Antibacterial activity against Staphylococcus aureus ATCC 29213 assessed as decrease in relative metabolic activity at 4 times of MIC by Alamar Blue assays; type: functional, organism-based
Klebsiella pneumoniae [30] = assay: Antibacterial activity against Klebsiella pneumonia assessed as decrease in relative metabolic activity at 4 times of MIC by Alamar Blue assays; type: functional, organism-based

`CCCn1cc(C(=O)OCC)c(=O)c2cc(F)c([C-](C#N)C(=O)OCC)cc21.[Na+]` (configuration not stated) was tested, and the MIC (Staphylococcus aureus [1]) was 64 µg/mL, the MIC (Staphylococcus aureus [2]) was 128 µg/mL and the MIC (Staphylococcus aureus [3]) was 2 µg/mL. It also gave an MIC (Staphylococcus aureus [4]) of 16 µg/mL, an MIC (Enterococcus faecalis) of 16 µg/mL and an MIC (Klebsiella pneumoniae [5]) of 16 µg/mL. It also gave an MIC (Escherichia coli [6]) of 16 µg/mL, an MIC (Escherichia coli [7]) of 4 µg/mL and an MIC (Pseudomonas aeruginosa [8]) of 8 µg/mL. The MIC (Pseudomonas aeruginosa [9]) was 8 µg/mL and the MIC (Acinetobacter baumannii) was 16 µg/mL.

Work on `CCOC(=O)c1cn(CC)c2cc(C(C#N)C(=O)OCC)c(F)cc2c1=O` (configuration not stated) yielded an MIC (Staphylococcus aureus [1]) of 256 µg/mL (≈ 684 µM), an MIC (Staphylococcus aureus [2]) of 32 µg/mL (≈ 85.5 µM) and an MIC (Staphylococcus aureus [3]) of 8 µg/mL (≈ 21.4 µM). The MIC (Staphylococcus aureus [4]) was 16 µg/mL (≈ 42.7 µM), the MIC (Enterococcus faecalis) was 32 µg/mL (≈ 85.5 µM) and the MIC (Klebsiella pneumoniae [5]) was 8 µg/mL (≈ 21.4 µM). For the same compound, the MIC (Escherichia coli [6]) was 16 µg/mL (≈ 42.7 µM), the MIC (Escherichia coli [7]) was 16 µg/mL (≈ 42.7 µM) and the MIC (Pseudomonas aeruginosa [8]) was 8 µg/mL (≈ 21.4 µM). For the same compound, the MIC (Pseudomonas aeruginosa [9]) was 8 µg/mL (≈ 21.4 µM) and the MIC (Acinetobacter baumannii) was 32 µg/mL (≈ 85.5 µM).

Compound `C#CCn1cc(C(=O)OCC)c(=O)c2cc(F)c(F)cc21` has an MIC (Staphylococcus aureus [1]) of 128 µg/mL (≈ 439 µM), an MIC (Staphylococcus aureus [2]) of 128 µg/mL (≈ 439 µM) and an MIC (Staphylococcus aureus [3]) of 256 µg/mL (≈ 879 µM). For the same compound, the MIC (Staphylococcus aureus [4]) was 128 µg/mL (≈ 439 µM), the MIC (Enterococcus faecalis) was 128 µg/mL (≈ 439 µM) and the MIC (Klebsiella pneumoniae [5]) was 128 µg/mL (≈ 439 µM). For the same compound, the MIC (Escherichia coli [6]) was 4 µg/mL (≈ 13.7 µM), the MIC (Escherichia coli [7]) was 64 µg/mL (≈ 220 µM) and the MIC (Pseudomonas aeruginosa [8]) was 16 µg/mL (≈ 54.9 µM). For the same compound, the MIC (Pseudomonas aeruginosa [9]) was 256 µg/mL (≈ 879 µM) and the MIC (Acinetobacter baumannii) was 256 µg/mL (≈ 879 µM).

Compound `CCOC(=O)c1cn(CC2CCCCC2)c2cc(F)c(F)cc2c1=O` has an MIC (Staphylococcus aureus [1]) of 128 µg/mL (≈ 366 µM), an MIC (Staphylococcus aureus [2]) of 16 µg/mL (≈ 45.8 µM) and an MIC (Staphylococcus aureus [3]) of 2 µg/mL (≈ 5.72 µM). It also gave an MIC (Staphylococcus aureus [4]) of 64 µg/mL (≈ 183 µM), an MIC (Enterococcus faecalis) of 128 µg/mL (≈ 366 µM) and an MIC (Klebsiella pneumoniae [5]) of 8 µg/mL (≈ 22.9 µM). For the same compound, the MIC (Escherichia coli [6]) was 4 µg/mL (≈ 11.4 µM), the MIC (Escherichia coli [7]) was 128 µg/mL (≈ 366 µM) and the MIC (Pseudomonas aeruginosa [8]) was 64 µg/mL (≈ 183 µM). The MIC (Pseudomonas aeruginosa [9]) was 256 µg/mL (≈ 733 µM) and the MIC (Acinetobacter baumannii) was 256 µg/mL (≈ 733 µM).

With `CCOC(=O)c1cn(Cc2ccc(Cl)c(Cl)c2)c2cc(C(C#N)C(=O)OCC)c(F)cc2c1=O` (configuration not stated) the Activity (Staphylococcus aureus [10]) was “Active”, the Activity (Klebsiella pneumoniae [11]) was “Active” and the Activity (Staphylococcus aureus [12]) was “Active”. For the same compound, the Activity (Klebsiella pneumoniae [13]) was “Active”, the Activity (Staphylococcus aureus [14]) was “Dose-Dependent Effect” and the Activity (Klebsiella pneumoniae [15]) was “Dose-Dependent Effect”. For the same compound, the Activity (Cell membrane [16]) was “Dose-Dependent Effect”, the Activity (Cell membrane [17]) was “Dose-Dependent Effect” and the Activity (Cell membrane [18]) was “Dose-Dependent Effect”. For the same compound, the Activity (Cell membrane [19]) was “Active”, the Activity (Cell membrane [20]) was “Active” and the Activity (Cell membrane [21]) was “Dose-Dependent Effect”. For the same compound, the Activity (Cell membrane [22]) was “Dose-Dependent Effect”, the Activity (Calf thymus DNA [23]) was “Active” and the Activity (Calf thymus DNA [24]) was “Active”. The Activity (Staphylococcus aureus [25]) was “Dose-Dependent Effect”, the Activity (Klebsiella pneumoniae [26]) was “Dose-Dependent Effect” and the Activity (Staphylococcus aureus [27]) was “Dose-Dependent Effect”. The Activity (Klebsiella pneumoniae [28]) was “Dose-Dependent Effect”, the Activity (Staphylococcus aureus [29]) was “Active” and the Activity (Klebsiella pneumoniae [30]) was “Active”.

Compound `CCOC(=O)C(C#N)c1c(F)cc2c(=O)c(C(=O)O)cn3c2c1OC[C@@H]3C` (some centres not stated) has an MIC (Staphylococcus aureus [1]) of 4 µg/mL (≈ 10.7 µM), an MIC (Staphylococcus aureus [2]) of 4 µg/mL (≈ 10.7 µM) and an MIC (Staphylococcus aureus [3]) of 32 µg/mL (≈ 85.5 µM). For the same compound, the MIC (Staphylococcus aureus [4]) was 4 µg/mL (≈ 10.7 µM), the MIC (Enterococcus faecalis) was 128 µg/mL (≈ 342 µM) and the MIC (Klebsiella pneumoniae [5]) was 8 µg/mL (≈ 21.4 µM). The MIC (Escherichia coli [6]) was 32 µg/mL (≈ 85.5 µM), the MIC (Escherichia coli [7]) was 1 µg/mL (≈ 2.67 µM) and the MIC (Pseudomonas aeruginosa [8]) was 16 µg/mL (≈ 42.7 µM). It also gave an MIC (Pseudomonas aeruginosa [9]) of 8 µg/mL (≈ 21.4 µM) and an MIC (Acinetobacter baumannii) of 1 µg/mL (≈ 2.67 µM).

With `CCOC(=O)c1cn(Cc2ccc(C)cc2)c2cc(F)c(F)cc2c1=O` the MIC (Staphylococcus aureus [1]) was 256 µg/mL (≈ 716 µM), the MIC (Staphylococcus aureus [2]) was 64 µg/mL (≈ 179 µM) and the MIC (Staphylococcus aureus [3]) was 64 µg/mL (≈ 179 µM). It also gave an MIC (Staphylococcus aureus [4]) of 128 µg/mL (≈ 358 µM), an MIC (Enterococcus faecalis) of 64 µg/mL (≈ 179 µM) and an MIC (Klebsiella pneumoniae [5]) of 128 µg/mL (≈ 358 µM). It also gave an MIC (Escherichia coli [6]) of 1 µg/mL (≈ 2.8 µM), an MIC (Escherichia coli [7]) of 128 µg/mL (≈ 358 µM) and an MIC (Pseudomonas aeruginosa [8]) of 128 µg/mL (≈ 358 µM). The MIC (Pseudomonas aeruginosa [9]) was 256 µg/mL (≈ 716 µM) and the MIC (Acinetobacter baumannii) was 2 µg/mL (≈ 5.6 µM).
